26 compounds from patent publication US7652053B2, “Diaminocycloalkane MCH receptor antagonists” (Hoffmann-La Roche Inc., priority 2006, dated 2010) can be followed below.

The assay concerns the target T1, recombinant human MCHR1 receptors (Homo sapiens, UniProt Q99705).
T1 construct: expressed in transfected cells
The assay can be described thus: MCHR Filter Binding Assay (competition binding with [Phe13[125I]Tyr19]-MCH). Here is the method:
Competition binding assay was conducted in MultiScreen […] glass fiber type B filter plates (96-well, Millipore). The MultiScreen plates were pretreated by incubation with 0.5% polyvinylpyrrolidone solution containing 1% BSA and 0.1% tween-20 for 12 hours at 4° C. and washed five times with ice-cold 10 mM Tris buffer, pH 7.5, followed by incubation with 200 µL of binding buffer (50 mM HEPES, 2.5 mM CaCl2, 0.05 mM BSA, 1 mM phenanthroline, 0.03 mM Triton X-100) for 5 min at room temperature and plates were drained before the binding reactions. The binding assay was performed by pre-incubating 2.8 µg of membranes from CHO-K1 cells stably expressing the recombinant human MCHR1 receptors, and various concentrations (final concentration 0.059 nM to 45 µM) of unlabeled MCH or antagonists in binding buffer for 15 min at room temperature. The competition reaction was started by adding final concentration (0.2 nM) [Phe^13[^125I]Tyr^19]-MCH (PerkinElmer). The final volume of the reaction was 90 µL per well. After 60 min incubation time at room temperature the reaction was stopped by rapid filtration over 96-well filter plates. Following termination of the binding reactions, the filters were washed with ice-cold binding buffer (4×200 µL), and were air dried for 30 min. Scintillation cocktail (60 µL) was added to each well and radioactivity bound to the plates was determined using a Micro-beta plate reader (Wallace/PerkinElmer). The inhibition potency of antagonist was expressed as IC50, the concentration of compound at which the binding of radio labeled MCH to MCHR1 was inhibited by 50%.

Where [1] appears, read: inhibition of binding of MCH to MCHR.
[2] abbreviates: inhibition of binding of MCH to MCHR, read-out: MCHR IC50.
[3] abbreviates: membranes from CHO-K1 cells stably expressing human MCHR1, 0.2 nM radiolabeled MCH, read-out: Activity in MCHR binding assays (IC50 class).

Structures can show the parent of a compound that is named as a salt. Where two headings read alike, the source gives them in different places.

T1 sequence (Q99705 whole entry): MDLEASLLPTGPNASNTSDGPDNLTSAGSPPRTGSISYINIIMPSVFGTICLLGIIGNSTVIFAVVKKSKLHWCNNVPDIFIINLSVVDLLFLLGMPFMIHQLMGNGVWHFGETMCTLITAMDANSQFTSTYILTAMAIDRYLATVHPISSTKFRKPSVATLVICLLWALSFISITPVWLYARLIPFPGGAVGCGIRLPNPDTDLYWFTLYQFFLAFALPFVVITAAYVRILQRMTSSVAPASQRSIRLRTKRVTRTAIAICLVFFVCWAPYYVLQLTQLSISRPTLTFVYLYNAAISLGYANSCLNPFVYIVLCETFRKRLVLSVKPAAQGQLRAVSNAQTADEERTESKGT

Turning to `Cc1ccc2c(c1)nc(C(C)(C)O)n2[C@H]1CC[C@@H](NCC2Cc3ccc(Cl)cc3C2)CC1` (stereo partly drawn) [Example 20, cis-2-(1-{4-[(5-Chloro-indan-2-ylmethyl)-amino]-cyclohexyl}-5-methyl-1H-benzoimidazol-2-yl)-propan-2-ol], the Ki under setting [1] was determined as 0.021 µM. Moreover, the IC50 was 0.026 µM under setting [2] and 0.01 to 0.1 µM under setting [3].

As to `Cc1nc2cc(F)ccc2n1[C@H]1CC[C@@H](NC[C@H]2Cc3ccc(C#N)cc3C2)CC1` [Example 26, cis-(S)-2-{[4-(5-Fluoro-2-methyl-benzoimidazol-1-yl)-cyclohexylamino]-methyl}-indan-5-carbonitrile], the Ki under setting [1] worked out at 0.002 µM. For the same compound, the IC50 by setting is: under setting [2], 0.003 µM; under setting [3], under 0.01 µM.

Regarding `Cc1ccc2c(c1)nc(C)n2[C@H]1CC[C@@H](NC[C@H]2Cc3ccc(C#N)cc3C2)CC1` [Example 15, cis-(S)-2-{[4-(2,5-Dimethyl-benzoimidazol-1-yl)-cyclohexylamino]-methyl}-indan-5-carbonitrile], the IC50 under setting [3] was 0.01 to 0.1 µM.

Consider `CC(C)(O)c1nc2cc(Cl)ccc2n1[C@H]1CC[C@@H](NC[C@@H]2Cc3ccc(Br)cc3C2)CC1` [Example 24, cis-(R)-2-(1-{4-[(5-Bromo-indan-2-ylmethyl)-amino]-cyclohexyl}-5-chloro-1H-benzoimidazol-2-yl)-propan-2-ol], for which the IC50 under setting [3] was in the range of 0.01 to 0.1 µM.

Consider `Cc1nc2cc(C#N)ccc2n1[C@H]1CC[C@@H](NCC2Cc3ccc(Cl)cc3C2)CC1` (stereo partly drawn) [Example 25, cis-1-{4-[(5-Chloro-indan-2-ylmethyl)-amino]-cyclohexyl}-2-methyl-1H-benzoimidazole-5-carbonitrile], for which the IC50 under setting [3] lay within 0.01 to 0.1 µM.

For `Cc1ccc2c(c1)nc(C)n2[C@@H]1CC[C@@H](NC[C@H]2Cc3ccc(Br)cc3C2)C1` [Example 2, trans-(S)-(5-Bomo-indan-2-ylmethyl)-[3-(2,5-dimethyl-benzoimidazol-1-yl)-cyclopentyl]-amine], under setting [3], the IC50 was 0.1 to 1 µM.

As for `CC(C)(O)c1nc2cc(Cl)ccc2n1[C@H]1CC[C@@H](NC[C@H]2Cc3ccc(C#N)cc3C2)CC1` [Example 14, cis-(S)-2-({4-[5-Chloro-2-(1-hydroxy-1-methyl-ethyl)-benzoimidazol-1-yl]-cyclohexylamino}-methyl)-indan-5-carbonitrile], the Ki under setting [1] came to 0.0018 µM. Moreover, the IC50 runs as follows: under setting [2], 0.0022 µM; under setting [3], under 0.01 µM.

Regarding `Cc1ccc2c(c1)nc(C)n2[C@H]1CC[C@@H](NCC2Cc3ccc(Cl)cc3C2)CC1` (stereo partly drawn) [Example 11, cis-(5-Chloro-indan-2-ylmethyl)-[4-(2,5-dimethyl-benzoimidazol-1-yl)-cyclohexyl]-amine], the IC50 under setting [3] is 0.01 to 0.1 µM.

For `CC(C)(O)c1nc2cc(Cl)ccc2n1[C@H]1CC[C@@H](NCC2Cc3ccc(C(F)(F)F)cc3C2)CC1` (relative stereo) [Example 8, cis-2-(5-Chloro-1-{4-[(5-trifluoromethyl-indan-2-ylmethyl)-amino]-cyclohexyl}-1H-benzoimidazol-2-yl)-propan-2-ol], the IC50 under setting [3] is 0.1 to 1 µM.

For `CC(C)(O)c1nc2cc(Cl)ccc2n1[C@H]1CC[C@@H](NC[C@H]2Cc3ccc(Br)cc3C2)CC1` [Example 7, cis-(S)-2-(1-{4-[(5-Bromo-indan-2-ylmethyl)-amino]-cyclohexyl}-5-chloro-1H-benzoimidazol-2-yl)-propan-2-ol], the Ki under setting [1] turned out to be 0.019 µM. Besides, the IC50 is 0.024 µM under setting [2] and 0.01 to 0.1 µM under setting [3].

As for `Cc1ccc2c(c1)nc(C)n2[C@H]1CC[C@@H](NC2Cc3ccc(Cl)cc3C2)CC1` (stereo partly drawn) [Example 6, cis-(5-Chloro-indan-2-yl)-[4-(2,5-dimethyl-benzoimidazol-1-yl)-cyclohexyl]-amine; hydrochloride], the IC50 under setting [3] lay within 0.01 to 0.1 µM.

As for `Cc1ccc2c(c1)nc(C)n2[C@@H]1CC[C@H](NC[C@H]2Cc3ccc(Br)cc3C2)C1` [Example 5, cis-(S)-(5-Bromo-indan-2-ylmethyl)-[3-(2,5-dimethyl-benzoimidazol-1-yl)-cyclopentyl]-amine], the IC50 under setting [3] was 0.1 to 1 µM.

As to `Cc1ccc2c(c1)nc(C)n2[C@H]1CC[C@@H](NC[C@H]2Cc3ccc(Br)cc3C2)CC1` [Example 4, cis-(S)-(5-Bromo-indan-2-ylmethyl)-[4-(2,5-dimethyl-benzoimidazole-1-yl)-cyclohexyl]-amine hydrochloride], under setting [3], the IC50 was in the range of 0.01 to 0.1 µM.

With `Cc1ccc2c(c1)nc(C)n2[C@H]1CC[C@@H](NCC2Cc3ccc(C(F)(F)F)cc3C2)CC1` (stereo partly drawn) [Example 12, cis-[4-(2,5-Dimethyl-benzoimidazol-1-yl)-cyclohexyl]-(5-trifluoromethyl-indan-2-ylmethyl)-amine], the IC50 under setting [3] fell in the range of 0.1 to 1 µM.

`Cc1ccc2c(c1)nc(C(C)(C)O)n2[C@H]1CC[C@H](NC[C@H]2Cc3ccc(C#N)cc3C2)CC1` [Example 17, trans-(S)-2-({4-[2-(1-Hydroxy-1-methyl-ethyl)-5-methyl-benzoimidazol-1-yl]-cyclohexylamino}-methyl)-indan-5-carbonitrile]: under setting [3], the IC50 was in the range of 0.1 to 1 µM.

On to `Cc1ccc2c(c1)nc(C(C)(C)O)n2[C@H]1CC[C@@H](NC[C@H]2Cc3ccc(C#N)cc3C2)CC1` [Example 16, cis-(S)-2-({4-[2-(1-Hydroxy-1-methyl-ethyl)-5-methyl-benzoimidazol-1-yl]-cyclohexylamino}-methyl)-indan-5-carbonitrile], for which the IC50 under setting [3] was under 0.01 µM.

`Cc1ccc2c(c1)nc(C(C)(C)O)n2[C@H]1CC[C@H](NCC2Cc3ccc(Cl)cc3C2)CC1` (stereo partly drawn) [Example 21, trans-2-(1-{4-[(5-Chloro-indan-2-ylmethyl)-amino]-cyclohexyl}-5-methyl-1H-benzoimidazol-2-yl)-propan-2-ol]: the IC50 under setting [3] was 0.1 to 1 µM.

As for `Cc1ccc2c(c1)nc(C)n2[C@H]1CC[C@@H](NC2Cc3ccccc3C2)CC1` [Example 1, cis-4-(2,5-Dimethyl-benzoimidazol-1-yl)-cyclohexyl]-indan-2-yl-amine; hydrochloride], under setting [3], the IC50 was 0.1 to 1 µM.

On to `CC(C)(O)c1nc2cc(Cl)ccc2n1[C@H]1CC[C@@H](NC[C@@H]2Cc3ccc(C#N)cc3C2)CC1` [Example 22, cis-(R)-2-({4-[5-Chloro-2-(1-hydroxy-1-methyl-ethyl)-benzoimidazol-1H-yl]-cyclohexylamino}-methyl)-indan-5-carbonitrile], for which, under setting [3], the IC50 is under 0.01 µM.

For `Cc1ccc2c(c1)nc(C(C)(C)O)n2[C@H]1CC[C@H](NCC2Cc3ccc(F)cc3C2)CC1` (stereo partly drawn) [Example 19, trans-2-(1-{4-[(5-Fluoro-indan-2-ylmethyl)-amino]-cyclohexyl}-5-methyl-1H-benzoimidazol-2-yl)-propan-2-ol], the IC50 under setting [3] was 0.1 to 1 µM.

Take `CC(C)(O)c1nc2cc(Cl)ccc2n1[C@H]1CC[C@@H](NCC2Cc3ccccc3C2)CC1` [Example 9, cis-2-(5-Chloro-1-{4-[(indan-2-ylmethyl)-amino]-cyclohexyl}-1H-benzoimidazol-2-yl)-propan-2-ol]: the IC50 under setting [3] is 0.01 to 0.1 µM.

As for `CC(C)(O)c1nc2cc(Cl)ccc2n1[C@H]1CC[C@@H](NCC2Cc3ccc(Cl)cc3C2)CC1` (stereo partly drawn) [Example 10, cis-2-(5-Chloro-1-{4-[(5-chloro-indan-2-ylmethyl)-amino]-cyclohexyl}-1H-benzoimidazol-2-yl)-propan-2-ol], the IC50 under setting [3] fell in the range of 0.01 to 0.1 µM.

Consider `CC(=O)N(C[C@H]1Cc2ccc(C#N)cc2C1)[C@H]1CC[C@@H](n2c(C(C)(C)O)nc3cc(Cl)ccc32)CC1` [Example 23, cis-(S)—N-{4-[5-Chloro-2-(1-hydroxy-1-methyl-ethyl)-benzoimidazol-1-yl]-cyclohexyl}-N-(5-cyano-indan-2-ylmethyl)-acetamide], for which, under setting [1], the Ki is 0.154 µM. The IC50 is 0.193 µM under setting [2] and 0.1 to 1 µM under setting [3].

Take `Cc1ccc2c(c1)nc(C)n2[C@@H]1CC[C@@H](NCC2Cc3ccc(Cl)cc3C2)C1` (relative stereo) [Example 3, trans-(5-Chloro-indan-2-ylmethyl)-[3-(2,5-dimethyl-benzoimidazol-1-yl)-cyclopentyl]-amine]: under setting [3], the IC50 was in the range of 0.1 to 1 µM.

With `Cc1ccc2c(c1)nc(C(C)(C)O)n2[C@H]1CC[C@@H](NCC2Cc3ccc(F)cc3C2)CC1` (stereo partly drawn) [Example 18, cis-2-(1-{4-[(5-Fluoro-indan-2-ylmethyl)-amino]-cyclohexyl}-5-methyl-1H-benzoimidazol-2-yl)-propan-2-ol], under setting [3], the IC50 lay within 0.01 to 0.1 µM.

`Cc1ccc2c(c1)nc(C)n2[C@H]1CC[C@@H](NCC2Cc3ccccc3C2)CC1` [Example 13, cis-[4-(2,5-Dimethyl-benzoimidazol-1-yl)-cyclohexyl]-indan-2-ylmethyl-amine]: the IC50 under setting [3] was in the range of 0.1 to 1 µM.
